Test results published in BigSolDB 2.1.

Cn1c(=O)cc(N2CCC[C@@H](N)C2)n(Cc2ccccc2C#N)c1=O.O=C(O)c1ccccc1
solubility (mole fraction)
Conditions | 278.15 K | 283.15 K | 288.15 K | 293.15 K | 298.15 K | 303.15 K | 308.15 K | 313.15 K | 318.15 K
in DMF | 0.00568 | 0.00686 | 0.00824 | 0.00984 | 0.0117 | 0.0138 | 0.0162 | 0.019 | 0.0222
in acetone | 0.00259 | 0.00293 | 0.00331 | 0.00373 | 0.00419 | 0.0047 | 0.00525 | 0.00587 | 0.00654
in acetonitrile | 0.000102 | 0.000145 | 0.000175 | 0.000228 | 0.000292 | 0.000368 | 0.000475 | 0.000583 | 0.000725
in ethanol | 0.000355 | 0.000447 | 0.000554 | 0.000682 | 0.000822 | 0.00102 | 0.00122 | 0.00147 | 0.00176
in isopropanol | 1.9e-05 | 3e-05 | 4.2e-05 | 6.3e-05 | 8.8e-05 | 0.000127 | 0.000175 | 0.000244 | 0.000334
in methanol | 0.00239 | 0.00269 | 0.00302 | 0.00339 | 0.00379 | 0.00423 | 0.00472 | 0.00525 | 0.00583
in n-propanol | 6.1e-05 | 8.2e-05 | 0.000113 | 0.000156 | 0.000209 | 0.000278 | 0.000367 | 0.000477 | 0.000621
in water | 0.000838 | 0.000915 | 0.000999 | 0.00109 | 0.00119 | 0.00129 | 0.0014 | 0.00153 | 0.00166
